Assay results as given in PubChem BioAssay AID1117296 (The Scripps Research Institute Molecular Screening Center, 2014).
The source made the active and inactive calls.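 The calls were made as follows: active = IC50 at or below 10 µM; inactive = IC50 above 10 µM.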

These molecules were tested on HuH7 TTR-promoter Gaussia luciferase reporter, luminescence (assay: potency of TTR promoter reporter decrease in HuH7 – cell-based, luminescence, HuH7 hepatoma, IC50, counter-screen for TTR transcription activator project, dose response (AID 1117296)).

Row | SMILES | IC50
1 | Cc1cccc(N(C)c2ncnc3onc(-c4ccc(F)cc4)c23)c1C | > 55.2 µM (inactive)
2 | CC(C)CNC(=O)CSc1nnc2ccccn12 | > 167 µM (inactive)
3 | c1ccc(Sc2ncnc3c2oc2ccccc23)nc1 | 142 µM (inactive)
4 | Cn1nccc1C(=O)N1CCc2ccccc21 | > 167 µM (inactive)
5 | CCn1ncc(/C=N\NC(=O)c2csc3ccccc23)c1C | > 167 µM (inactive)
6 | COc1ccc(CCNc2c3ccccc3nc3ccccc23)cc1OC | 54.4 µM (inactive)
7 | CCCNC(=O)c1ccc(N2CCC3(CC2)CC(c2ccccc2)=NO3)c(NC(=O)c2ccco2)c1 | > 167 µM (inactive)
8 | Cc1ccc(/C=N/NC(=O)c2csc(C)c2)o1 | 116 µM (inactive)
9 | Cc1nn(C)c(C(=O)N2CCc3ccccc32)c1Br | > 167 µM (inactive)
10 | Cc1ccccc1Cn1cc(COC(=O)N(C)Cc2ccccc2)nn1 | 115 µM (inactive)
11 | Cn1c(O)c(/C=C2\N=c3ccccc3=C2CCNC(=S)NC2CC2)c(=O)n(C)c1=O | 45 µM (inactive)
12 | CCCC(=O)NC1=C(N2CC2)C(=O)C(NC(=O)CCC)=C(N2CC2)C1=O | 23.5 µM (inactive)
13 | COc1ccc(-c2noc(-c3cccs3)n2)cc1OC | > 167 µM (inactive)
14 | Cc1cc(C(=O)N2CCc3ccccc32)n(-c2ccccc2)n1 | 175 µM (inactive)
15 | CC(Oc1ccccc1)C(=O)N1CCN=C1SCc1ccccc1 (stereo not given) | 70.7 µM (inactive)
16 | COc1ccc([C@@H]2CC=C(C(=O)O)[C@H](c3ccccc3F)N2S(=O)(=O)c2ccccc2C)cc1 | 66.3 µM (inactive)
17 | CC(=O)c1cc(C(C)=O)c(C)nc1C | > 167 µM (inactive)
18 | CN(C)CC(CCC(CN(C)C)C(O)(c1ccccc1)c1ccccc1)C(O)(c1ccccc1)c1ccccc1 (stereo not given) | 17.2 µM (inactive)
19 | O=c1cc(O)c2sc(Nc3ccc(Cl)c(F)c3)nc2[nH]1 | > 167 µM (inactive)
20 | Cn1ncc(Cl)c1C(=O)N1CCc2ccccc21 | > 167 µM (inactive)
21 | [O-]/C(=C(\C(=S)Nc1ccc(SC(F)F)cc1)[n+]1ccccc1)c1cc(Cl)ccc1Cl | > 167 µM (inactive)
22 | Cn1cc(Br)c(C(=O)N2CCc3ccccc32)n1 | > 167 µM (inactive)
23 | Cn1cc(C2CC(c3ccccc3)=NN2C(=O)c2ccccc2)c2ccccc21 (stereo not given) | > 167 µM (inactive)
24 | COc1ccc2cc3c(N)nn(C(=O)c4ccccc4[N+](=O)[O-])c3nc2c1 | 34.8 µM (inactive)
25 | C=CCn1c(=O)c2c(nc3n2CC(C)CN3Cc2ccccc2)n(C)c1=O (stereo not given) | 82.5 µM (inactive)
26 | c1cc2c(cc1C1=Nn3c(nnc3C3CCCCC3)SC1)OCO2 | 47.1 µM (inactive)
27 | Cc1c(Br)c(C(=O)N2CCc3ccccc32)nn1C | > 167 µM (inactive)
28 | COc1cccc(-c2csc(NC(=O)C3CC3)n2)c1 | 103 µM (inactive)

Row | SMILES | IC50
29 | CCOc1ccc(N=C2NC(=O)S/C2=C\c2ccc(O)cc2)cc1 | > 167 µM (inactive)
30 | CCOC(=O)Nc1nc(-c2ccccc2)c(C(=O)c2ccc(Cl)cc2)s1 | > 55.2 µM (inactive)
31 | O=C(O)c1ccc(CSc2nnc(Cc3ccccc3)o2)cc1 | 27.3 µM (inactive)
32 | CCCCn1c(O)c(C(=O)/C=C/c2ccc3c(c2)OCO3)c(=O)[nH]c1=O | 90.9 µM (inactive)
33 | Cc1ccc(CNC(=O)Cc2ccc(-c3ccccc3)cc2)cc1 | > 167 µM (inactive)
34 | O=C(CCl)c1cc2c3c(c1)CC(=O)N3CCC2 | 19.8 µM (inactive)
35 | CN(Cc1ccccc1)C(=O)c1[nH]cnc1C(=O)NCC(=O)OC(C)(C)C | > 167 µM (inactive)
36 | CN(C)CCNc1ccc(CO)c2oc3ccc(O)cc3c(=O)c12 | > 55.2 µM (inactive)
37 | OCCNc1c2ccccc2nc2ccccc12 | 54.9 µM (inactive)
38 | Cc1ccc(C2CC(c3ccccc3)=NN2C(=S)Nc2ccccc2)o1 (stereo not given) | > 167 µM (inactive)
39 | O=[N+]([O-])c1cccc(-c2noc(-c3ccco3)n2)c1 | > 167 µM (inactive)
40 | Cc1nnc(SCc2ccc(Cl)cc2)nc1/C=C/N(C)C | 81.3 µM (inactive)
41 | Cc1ccc(Nc2c3c(nc4ncnn24)CCC3)cc1 | > 167 µM (inactive)
42 | Cc1cnc(NC(=O)CCCc2nc3ccccc3s2)s1 | > 167 µM (inactive)
43 | O=C/C(=C\Nc1ccccn1)c1nc2ccccc2o1 | > 18.4 µM (inactive)
44 | CC1CN(Cc2ccccc2)c2nc3c(c(=O)n(CC(N)=O)c(=O)n3C)n2C1 (stereo not given) | > 167 µM (inactive)
45 | N=c1ccn(CC(=O)NC(N)=O)c2ccccc12 | > 167 µM (inactive)
46 | Cn1ncc(Br)c1C(=O)N1CCc2ccccc21 | > 167 µM (inactive)
47 | Cc1ccc([C@H]2C[C@@H](O)[C@H](n3cc(-c4ccc(F)cc4)nn3)CN2C(=O)c2cccs2)cc1 | 63 µM (inactive)
48 | C/C(=N\Nc1ncc(Br)cn1)c1cccc([N+](=O)[O-])c1 | > 167 µM (inactive)
49 | COc1ccc(C(=O)NC2CCCc3c2cnn3-c2cc(F)cc(F)c2)c(OC)c1OC (stereo not given) | 61.9 µM (inactive)
50 | Cc1cc(C)n(CC(=O)n2c(C)c(C)c3ccccc32)n1 | > 167 µM (inactive)
51 | Cc1c(C(=O)N2CCc3ccccc32)cnn1C | > 167 µM (inactive)
52 | COc1ccc2[nH]c3c(Cl)ncnc3c2c1 | > 167 µM (inactive)
53 | Cc1c(NS(=O)(=O)c2ccc(NC3CCCC3)c([N+](=O)[O-])c2)c(=O)n(-c2ccccc2)n1C | > 167 µM (inactive)
54 | Cc1cccc(NC(c2ccc(O)cc2)c2ccc3ccc(C)nc3c2O)n1 (stereo not given) | 61.8 µM (inactive)
55 | COc1ccc(-c2cc(C)no2)cc1S(=O)(=O)NCc1cccc(C)c1 | > 167 µM (inactive)
